# Measurements taken from patent publication US5106853A, “Oxadiazole and its salts, their use in treating dementia” (Merck Sharp & Dohme, Ltd., priority 1989, dated 1992).
# Like-named read-outs stand apart in the source and are kept apart here.
# Assays:
# M-2 receptor = molecular target: T1, M-2 receptor (Cavia porcellus, UniProt H0VRN8); assay: Functional selectivity, guinea-pig atrium (methods of J. Med. Chem. (1987), 30, 969-975); format: cell-based
# T1 construct: from tissue; host or cells: guinea-pig atrium
# T1 sequence (H0VRN8 1-466): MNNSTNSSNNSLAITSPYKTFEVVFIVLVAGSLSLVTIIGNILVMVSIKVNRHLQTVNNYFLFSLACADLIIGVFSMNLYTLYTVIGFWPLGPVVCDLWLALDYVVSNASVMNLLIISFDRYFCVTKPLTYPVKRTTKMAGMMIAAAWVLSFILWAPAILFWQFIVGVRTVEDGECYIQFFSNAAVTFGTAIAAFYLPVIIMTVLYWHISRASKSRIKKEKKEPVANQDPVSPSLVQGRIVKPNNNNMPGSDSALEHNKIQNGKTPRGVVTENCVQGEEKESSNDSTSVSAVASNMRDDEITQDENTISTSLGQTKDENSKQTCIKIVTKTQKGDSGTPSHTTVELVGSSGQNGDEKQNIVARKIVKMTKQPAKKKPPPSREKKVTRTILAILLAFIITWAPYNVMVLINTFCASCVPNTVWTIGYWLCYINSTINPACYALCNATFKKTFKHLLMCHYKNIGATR
# Description: (§1) B. By the methods disclosed in J. Med. Chem. (1987), 30, 969-975 was determined the functional selectivity of compound (I): […]
# M-3 receptor = molecular target: T2, M-3 receptor (Cavia porcellus, UniProt H0W1Z3); assay: Functional selectivity, guinea-pig myenteric plexus/longitudinal muscle strip (methods of J. Med. Chem. (1987), 30, 969-975); format: cell-based
# T2 construct: from tissue; host or cells: guinea-pig myenteric plexus/longitudinal muscle strip
# Description: as §1
# M-1 receptor = molecular target: T3, M-1 receptor (Rattus norvegicus, UniProt P08482); assay: Functional selectivity, rat superior cervical ganglion (methods of J. Med. Chem. (1987), 30, 969-975); format: cell-based; settings: mean ± S.D. (n = 5)
# T3 construct: from tissue
# T3 sequence (P08482 1-460): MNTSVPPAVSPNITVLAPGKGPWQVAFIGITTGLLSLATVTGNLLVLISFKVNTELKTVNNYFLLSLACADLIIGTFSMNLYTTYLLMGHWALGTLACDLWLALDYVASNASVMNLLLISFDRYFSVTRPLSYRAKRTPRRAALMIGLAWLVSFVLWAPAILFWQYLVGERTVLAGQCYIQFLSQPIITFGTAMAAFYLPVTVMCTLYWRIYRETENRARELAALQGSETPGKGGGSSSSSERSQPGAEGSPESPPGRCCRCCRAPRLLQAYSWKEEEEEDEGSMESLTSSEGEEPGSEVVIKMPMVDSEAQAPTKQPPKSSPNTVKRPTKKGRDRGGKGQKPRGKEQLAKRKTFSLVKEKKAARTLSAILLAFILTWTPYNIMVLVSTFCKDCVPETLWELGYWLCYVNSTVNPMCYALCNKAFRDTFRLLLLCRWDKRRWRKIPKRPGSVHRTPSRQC
# Description: as §1
# [1] = molecular target: muscarinic acetylcholine receptors; assay: NMS/OXO-M displacement: [3H]NMS and [3H]OXO-M Kapp (method of Br. J. Pharmacol. (1988), 93, 437-445); format: binding; settings: for Kd: Kapp = corrected dissociation constant allowing for ligand occupancy
# Description: A. By the method disclosed in Br. J. Pharmacol. (1988), 93, 437-445 were determined the NMS/OXO-M data for the compound (I): [^3 H]NMS Kapp =0.025 μM; [^3 H]OXO-M Kapp =0.0017 μM; ratio NMS/OXO-M=15; (Kapp =corrected dissociation constant allowing for ligand occupancy).
# [2] = relative maximum, read-out: Rel. Max.
# T2 sequence (H0W1Z3 1-590): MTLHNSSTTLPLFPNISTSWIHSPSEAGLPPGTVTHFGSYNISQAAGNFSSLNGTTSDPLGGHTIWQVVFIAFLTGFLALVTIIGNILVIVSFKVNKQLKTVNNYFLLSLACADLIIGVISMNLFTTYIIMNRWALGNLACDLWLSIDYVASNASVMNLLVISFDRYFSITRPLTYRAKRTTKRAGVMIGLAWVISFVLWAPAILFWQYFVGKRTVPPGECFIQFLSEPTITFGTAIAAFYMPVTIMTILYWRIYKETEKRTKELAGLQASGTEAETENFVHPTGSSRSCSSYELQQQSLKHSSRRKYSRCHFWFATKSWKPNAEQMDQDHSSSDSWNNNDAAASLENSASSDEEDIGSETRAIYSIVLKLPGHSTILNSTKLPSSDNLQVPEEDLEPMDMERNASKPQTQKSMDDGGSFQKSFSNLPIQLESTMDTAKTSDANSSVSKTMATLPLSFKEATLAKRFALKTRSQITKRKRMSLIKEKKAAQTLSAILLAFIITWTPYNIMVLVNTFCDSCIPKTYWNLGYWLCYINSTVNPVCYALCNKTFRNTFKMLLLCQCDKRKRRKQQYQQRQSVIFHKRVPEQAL
smiles,measurement,setting,value
"C1CC1c1noc([C@H]2CN3CC[C@H]2C3)n1 [compound (I), (3R, 4R)-3-(3-cyclopropyl-1,2,4-oxadiazol-5-yl)-1-azabicyclo[2.2.1]heptane]",Kb,"M-2 receptor; 95% confidence limits 7.80-8.20, n = 10, slope of Arunlakshana-Schild plot not significantly different from unity, read-out: pA2 (converted)",10 nM
same,Emax,M-2 receptor; [2],0%
same,Kb,"M-3 receptor; 95% confidence limits 7.90-8.40, n = 12, slope of Arunlakshana-Schild plot not significantly different from unity, read-out: pA2 (converted)",7.08 nM
same,Emax,M-3 receptor; [2],0%
same,EC50,M-1 receptor,63.1 nM
same,Emax,M-1 receptor; [2],55 ± 10%
same,Kd,"[1]; radioligand [3H]NMS, read-out: [3H]NMS Kapp",25 nM
same,Kd,"[1]; radioligand [3H]OXO-M, read-out: [3H]OXO-M Kapp",1.7 nM
same,ratio NMS/OXO-M,[1]; ratio of Kapp values,15
